Marks after values point to notes of the source that are not given here.
Key:
GCGR = molecular target: T1, GCGR (Homo sapiens, UniProt P47871); test: In vitro cell activity, cAMP production in HEK293 cells expressing GCGR; type: cell-based
T1 construct: expressed in transfected cells; host or cells: HEK293 (HEK293-GCGR)
Procedure, shortened: (§1)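 Cells were plated at 4×10^5 cells/mL, and detection reagents (cAMP-d2, anti-cAMP cryptate, 1:1) were incubated 1 h at room temperature in the dark or overnight at 4 °C.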

GIPR = molecular target: T2, GIPR (Homo sapiens, UniProt P48546); test: In vitro cell activity, cAMP production in HEK293 cells expressing GIPR; type: cell-based
T2 construct: expressed in transfected cells; host or cells: HEK293 (HEK293-GIPR)
T2 sequence (P48546 22-466): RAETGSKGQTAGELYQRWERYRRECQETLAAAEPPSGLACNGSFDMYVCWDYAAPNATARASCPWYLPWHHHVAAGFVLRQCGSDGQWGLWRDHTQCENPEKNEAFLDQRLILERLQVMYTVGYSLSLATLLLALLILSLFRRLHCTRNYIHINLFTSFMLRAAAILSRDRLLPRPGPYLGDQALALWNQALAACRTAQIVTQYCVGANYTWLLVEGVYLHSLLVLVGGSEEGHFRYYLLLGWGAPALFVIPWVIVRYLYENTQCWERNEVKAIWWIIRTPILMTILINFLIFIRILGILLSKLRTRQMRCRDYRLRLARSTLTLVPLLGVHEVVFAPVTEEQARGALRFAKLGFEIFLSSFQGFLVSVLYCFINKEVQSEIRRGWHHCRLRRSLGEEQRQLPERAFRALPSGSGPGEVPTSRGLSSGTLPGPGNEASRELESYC
Procedure, shortened: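 cAMP accumulation is quantified by homogeneous TR-FRET (cAMP-d2 plus anti-cAMP cryptate) in GIPR-expressing HEK293 cells seeded from a 4×10^5 cells/mL suspension and treated with compound. The signal ratio is plotted against concentration and fitted to a four-parameter curve to give EC50.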

[1] = Glucose tolerance assessment in normal C57BL/6 mice (Example 4); type: in vivo; details: for Blood glucose level (mM) 15 min / Blood glucose level (mM) 30 min / Blood glucose level (mM) 60 min / Blood glucose level (mM) 90 min / Blood glucose level (mM) 0 min / AUC0-90 min: 3 nmol/kg s.c. single dose, 24 h after administration; for Blood glucose level (mM) 15 min: 15 min after 2 g/kg glucose i.p.; for Blood glucose level (mM) 30 min: 30 min after 2 g/kg glucose i.p.; for Blood glucose level (mM) 60 min: 60 min after 2 g/kg glucose i.p.; for Blood glucose level (mM) 90 min: 90 min after 2 g/kg glucose i.p.; for Blood glucose level (mM) 0 min: basal before 2 g/kg glucose i.p.; for improvement of glucose tolerance compared with LY3298176: 24 hours after a single administration, 3 nmol/kg; for AUC0-90 min: blood glucose AUC, 2 g/kg glucose i.p.
Description: Twelve hours after the single administration, the animals were fasted for 12 hours and had free access to water. Blood was collected from the tail vein to determine the basal blood glucose level of each group of animals, and then 2 g/kg glucose solution was injected intraperitoneally. Blood glucose was tested at 15, 30, 60, and 90 min after glucose administration. The blood glucose concentration-time curve was drawn according to the blood glucose values measured at different time points, and the AUC0~90min of each dose group was calculated as shown in Table 4 and Figure 1. Table 4: Effects of single administration of HEC-PT74, HEC-PT75, HEC-PT77, HEC-PT78, HEC-PT80, and HEC-PT82 on glucose tolerance in normal C57 mice 24 h after administration

GLP-1R = molecular target: T3, GLP-1R (Homo sapiens, UniProt P43220); test: In vitro cell activity, cAMP production in HEK293 cells expressing GLP-1R; type: cell-based
T3 construct: expressed in transfected cells; host or cells: HEK293 (HEK293-GLP-1R)
T3 sequence (P43220 24-463, species assumed): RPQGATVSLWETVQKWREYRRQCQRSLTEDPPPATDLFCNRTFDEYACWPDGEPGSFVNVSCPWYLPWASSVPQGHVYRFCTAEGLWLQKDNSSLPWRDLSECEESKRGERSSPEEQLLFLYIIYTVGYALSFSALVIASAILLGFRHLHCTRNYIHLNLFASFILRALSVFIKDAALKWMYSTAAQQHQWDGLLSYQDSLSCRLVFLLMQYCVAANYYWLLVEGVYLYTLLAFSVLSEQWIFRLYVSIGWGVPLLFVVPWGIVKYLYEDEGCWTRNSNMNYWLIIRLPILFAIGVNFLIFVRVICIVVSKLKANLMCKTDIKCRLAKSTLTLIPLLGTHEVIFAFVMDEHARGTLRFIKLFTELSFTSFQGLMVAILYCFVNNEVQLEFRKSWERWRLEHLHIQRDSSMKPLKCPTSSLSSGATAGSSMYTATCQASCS
Procedure, shortened: as §1

T1 sequence (P47871 26-477, species assumed): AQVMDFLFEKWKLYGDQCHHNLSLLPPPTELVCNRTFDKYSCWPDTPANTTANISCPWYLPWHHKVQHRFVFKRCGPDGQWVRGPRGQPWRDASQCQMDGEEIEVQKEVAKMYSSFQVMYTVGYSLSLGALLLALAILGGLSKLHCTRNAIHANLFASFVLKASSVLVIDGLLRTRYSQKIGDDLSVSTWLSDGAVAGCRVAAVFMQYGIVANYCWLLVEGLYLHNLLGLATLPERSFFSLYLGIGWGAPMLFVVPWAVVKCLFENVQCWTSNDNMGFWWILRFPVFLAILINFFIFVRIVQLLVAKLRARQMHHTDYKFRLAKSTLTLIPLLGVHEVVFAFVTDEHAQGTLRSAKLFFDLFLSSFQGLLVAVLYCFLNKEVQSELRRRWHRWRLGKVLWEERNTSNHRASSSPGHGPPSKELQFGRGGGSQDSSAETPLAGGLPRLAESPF

CC[C@H](C)[C@H](NC(=O)[C@H](Cc1ccccc1)NC(=O)[C@H](C)NC(=O)[C@H](CCCNC(=N)N)NC(=O)[C@H](CCC(N)=O)NC(=O)[C@H](C)NC(=O)[C@H](CCCCNC(=O)COCCOCCNC(=O)CC[C@H](NC(=O)CCCCCCCCCCCCCCCCC(=O)O)C(=O)O)NC(=O)[C@H](CCC(=O)O)NC(=O)[C@H](CC(=O)O)NC(=O)[C@H](CC(C)C)NC(=O)[C@H](CC(C)C)NC(=O)[C@@H](NC(=O)[C@H](CO)NC(=O)[C@H](Cc1ccc(O)cc1)NC(=O)[C@H](CC(=O)O)NC(=O)[C@H](CO)NC(=O)[C@@H](NC(=O)[C@](C)(Cc1ccccc1F)NC(=O)[C@@H](NC(=O)CNC(=O)[C@H](Cc1c[nH]cn1)NC(=O)C(C)(C)NC(=O)[C@@H](N)Cc1ccc(O)cc1)[C@@H](C)O)[C@@H](C)O)[C@@H](C)CC)C(=O)N[C@@H](CCC(=O)O)C(=O)N[C@@H](Cc1ccc(O)cc1)C(=O)N[C@@H](CC(C)C)C(=O)N[C@@H](CC(C)C)C(=O)N[C@@H](C)C(=O)NCC(=O)NCC(=O)N1CCC[C@H]1C(=O)N[C@@H](CO)C(=O)N[C@@H](CO)C(=O)NCC(=O)N[C@@H](C)C(=O)N1CCC[C@H]1C(=O)N1CCC[C@H]1C(=O)N1CCC[C@H]1C(=O)N[C@@H](CO)C(=O)O [HEC-PT75]
EC50 (GCGR): 0.0672 nM
EC50 (GIPR): 0.0377 nM
Blood glucose level (mM) 15 min [1]: 11.1 ± 3.1 mM
Blood glucose level (mM) 30 min [1]: 8.9 ± 3.1 mM
Blood glucose level (mM) 60 min [1]: 7.4 ± 2.0 mM
Blood glucose level (mM) 90 min [1]: 5.6 ± 0.7 mM
Blood glucose level (mM) 0 min [1]: 4.0 ± 0.4 mM
improvement of glucose tolerance compared with LY3298176 [1]: more effective in improving glucose tolerance than the positive control LY3298176
AUC0-90 min [1]: 682.0±166.7^a
EC50 (GLP-1R): 0.108 nM

CC[C@H](C)[C@H](NC(=O)[C@H](Cc1ccccc1)NC(=O)[C@H](CCC(=O)O)NC(=O)[C@H](CCC(N)=O)NC(=O)[C@H](CCC(N)=O)NC(=O)[C@H](C)NC(=O)[C@H](CCCCNC(=O)COCCOCCNC(=O)CC[C@H](NC(=O)CCCCCCCCCCCCCCCCCCC(=O)O)C(=O)O)NC(=O)[C@H](CCC(=O)O)NC(=O)[C@H](CC(=O)O)NC(=O)[C@H](CC(C)C)NC(=O)[C@H](CC(C)C)NC(=O)[C@@H](NC(=O)[C@H](CO)NC(=O)[C@H](Cc1ccc(O)cc1)NC(=O)[C@H](CC(=O)O)NC(=O)[C@H](CO)NC(=O)[C@@H](NC(=O)[C@](C)(Cc1ccccc1F)NC(=O)[C@@H](NC(=O)CNC(=O)[C@H](CCC(N)=O)NC(=O)C(C)(C)NC(=O)[C@@H](N)Cc1ccc(O)cc1)[C@@H](C)O)[C@@H](C)O)[C@@H](C)CC)C(=O)N[C@@H](CCC(=O)O)C(=O)N[C@@H](Cc1c[nH]c2ccccc12)C(=O)N[C@@H](CC(C)C)C(=O)N[C@@H](CC(C)C)C(=O)N[C@@H](CCC(=O)O)C(=O)NCC(=O)NCC(=O)N1CCC[C@H]1C(=O)N[C@@H](CO)C(=O)N[C@@H](CO)C(=O)NCC(=O)N[C@@H](C)C(=O)N1CCC[C@H]1C(=O)N1CCC[C@H]1C(=O)N1CCC[C@H]1C(=O)N[C@@H](CO)C(=O)O [HEC-PT78]
EC50 (GCGR): 4.5 nM
EC50 (GIPR): 0.215 nM
Blood glucose level (mM) 15 min [1]: 15.8 ± 2.6 mM
Blood glucose level (mM) 30 min [1]: 12.0 ± 2.5 mM
Blood glucose level (mM) 60 min [1]: 9.2 ± 1.5 mM
Blood glucose level (mM) 90 min [1]: 7.3 ± 0.7 mM
Blood glucose level (mM) 0 min [1]: 4.6 ± 0.6 mM
AUC0-90 min [1]: 927.1±135.2^a
EC50 (GLP-1R): 0.532 nM

CC[C@H](C)[C@H](NC(=O)[C@H](Cc1ccccc1)NC(=O)[C@H](CCC(=O)O)NC(=O)[C@H](CCC(N)=O)NC(=O)[C@H](CCC(N)=O)NC(=O)[C@H](C)NC(=O)[C@H](CCCCNC(=O)COCCOCCNC(=O)CC[C@H](NC(=O)CCCCCCCCCCCCCCCCC(=O)O)C(=O)O)NC(=O)[C@H](CCC(=O)O)NC(=O)[C@H](CC(=O)O)NC(=O)[C@H](CC(C)C)NC(=O)[C@H](CC(C)C)NC(=O)[C@@H](NC(=O)[C@H](CO)NC(=O)[C@H](Cc1ccc(O)cc1)NC(=O)[C@H](CC(=O)O)NC(=O)[C@H](CO)NC(=O)[C@@H](NC(=O)[C@](C)(Cc1ccccc1F)NC(=O)[C@@H](NC(=O)CNC(=O)[C@H](Cc1c[nH]cn1)NC(=O)C(C)(C)NC(=O)[C@@H](N)Cc1ccc(O)cc1)[C@@H](C)O)[C@@H](C)O)[C@@H](C)CC)C(=O)N[C@@H](CCC(=O)O)C(=O)N[C@@H](Cc1c[nH]c2ccccc12)C(=O)N[C@@H](CC(C)C)C(=O)N[C@@H](CC(C)C)C(=O)N[C@@H](C)C(=O)NCC(=O)NCC(=O)N1CCC[C@H]1C(=O)N[C@@H](CO)C(=O)N[C@@H](CO)C(=O)NCC(=O)N[C@@H](C)C(=O)N1CCC[C@H]1C(=O)N1CCC[C@H]1C(=O)N1CCC[C@H]1C(=O)N[C@@H](CO)C(=O)O [HEC-PT80]
EC50 (GCGR): 1.27 nM
EC50 (GIPR): 0.0506 nM
Blood glucose level (mM) 15 min [1]: 11.1 ± 2.0 mM
Blood glucose level (mM) 30 min [1]: 9.3 ± 1.7 mM
Blood glucose level (mM) 60 min [1]: 7.2 ± 1.0 mM
Blood glucose level (mM) 90 min [1]: 5.5 ± 0.5 mM
Blood glucose level (mM) 0 min [1]: 4.6 ± 1.1 mM
improvement of glucose tolerance compared with LY3298176 [1]: more effective in improving glucose tolerance than the positive control LY3298176
AUC0-90 min [1]: 707.6±98.4^a
EC50 (GLP-1R): 0.341 nM

— EP4596574A1, “GLP-1/GCG/GIP TRIPLE-RECEPTOR AGONIST AND USE THEREOF” (Sunshine Lake Pharma Co., Ltd., priority 2022, dated 2024)
